The values below come from publication PMC6022709 (BMC Research Notes, 2018).

The assay has as its system M. tuberculosis resistant isolates. In kind it is cell-based, Mycobacterium tuberculosis. The note with it: solid medium 7H10 with 10% v/v OADC, 3–4 weeks.

In brackets after ≈: the same amount, converted by molar mass. Read-outs that look alike come from different tables or passages of the source.

With `CC(C)CC1C(=O)N2NCCCC2C(=O)N2NCCCC2C(=O)N(C)C(Cc2ccccc2)C(=O)N2CCCC2C(=O)NC(Cc2ccccc2)C(=O)N1O` (stereo not drawn) [Compound 1, cyclo[N-(Me)Phe-Pro-Phe-N-(OH)Leu-Piz-Piz]], the MIC99 (as a rule, the lowest concentration that inhibits either 99% of growth or 99% of the strains tested, depending on the study) (strain LP-0458690-RM1) stood at 13 µM (≈ 9.87 µg/mL); the MIC99 (strain LP-0458690-RM2) is 25 µM (≈ 19 µg/mL); the MIC99 (strain LP-0458690-RM3) was 25 µM (≈ 19 µg/mL); the MIC99 (strain LP-0458690-RM4) is listed as 25 µM (≈ 19 µg/mL); the MIC99 (strain LP-0458690-RM5) is 25 µM (≈ 19 µg/mL); the MIC99 (strain LP-0458690-RM6) is 25 µM (≈ 19 µg/mL).
Take `CC(C)CC1C(=O)N2NCCCC2C(=O)N2NCCCC2C(=O)N(C)C(Cc2ccccc2)C(=O)N2CCCC2C(=O)NC(C(C)C)C(=O)N1O` (stereo not drawn) [Compound 3]: the MIC99 (strain LP-0458686-RM1) was 3.1 µM (≈ 2.2 µg/mL), the MIC99 (strain LP-0458686-RM2) worked out at 3.1 µM (≈ 2.2 µg/mL) and the MIC99 (strain LP-0458686-RM3) was determined as 3.1 µM (≈ 2.2 µg/mL).
